Results taken from the NIST ThermoML archive (doi:10.1016/j.jct.2006.07.017).

Experiment: xn = mol fraction of the nth substance listed
Details: 101 kPa, Liquid

Cc1cccc(C)c1 [1,3-dimethylbenzene] + CN(C)C=O
Details	mass density [kg/m3]
293.15 K, x1 = 0.0541	942.31
293.15 K, x1 = 0.1151	935.54
293.15 K, x1 = 0.1752	929.18
293.15 K, x1 = 0.2332	923.31
293.15 K, x1 = 0.3021	916.67
293.15 K, x1 = 0.3661	910.82
293.15 K, x1 = 0.4341	904.88
293.15 K, x1 = 0.4984	899.53
293.15 K, x1 = 0.5624	894.44
293.15 K, x1 = 0.6165	890.3
293.15 K, x1 = 0.6751	885.98
293.15 K, x1 = 0.7315	881.96
293.15 K, x1 = 0.8085	876.67
293.15 K, x1 = 0.8758	872.21
293.15 K, x1 = 0.9425	867.93
303.15 K, x1 = 0.0625	932.16
303.15 K, x1 = 0.1251	925.21
303.15 K, x1 = 0.1852	918.87
303.15 K, x1 = 0.2515	912.21
303.15 K, x1 = 0.3251	905.23
303.15 K, x1 = 0.3895	899.45
303.15 K, x1 = 0.4517	894.13
303.15 K, x1 = 0.5214	888.45
303.15 K, x1 = 0.5865	883.4
303.15 K, x1 = 0.6485	878.8
303.15 K, x1 = 0.7125	874.25
303.15 K, x1 = 0.7885	869.05
303.15 K, x1 = 0.8458	865.29
303.15 K, x1 = 0.9012	861.75
303.15 K, x1 = 0.9666	857.68
313.15 K, x1 = 0.0569	923.43
313.15 K, x1 = 0.1125	917.21
313.15 K, x1 = 0.1812	909.9
313.15 K, x1 = 0.2554	902.46
313.15 K, x1 = 0.3251	895.89
313.15 K, x1 = 0.4023	889.03
313.15 K, x1 = 0.4785	882.65
313.15 K, x1 = 0.5445	877.43
313.15 K, x1 = 0.6054	872.82
313.15 K, x1 = 0.6695	868.19
313.15 K, x1 = 0.7254	864.3
313.15 K, x1 = 0.7812	860.56
313.15 K, x1 = 0.8452	856.41
313.15 K, x1 = 0.9032	852.77
313.15 K, x1 = 0.9577	849.43
323.15 K, x1 = 0.0482	914.86
323.15 K, x1 = 0.1065	908.29
323.15 K, x1 = 0.1684	901.67
323.15 K, x1 = 0.2341	895.02
323.15 K, x1 = 0.3051	888.24
323.15 K, x1 = 0.3659	882.75
323.15 K, x1 = 0.4252	877.65
323.15 K, x1 = 0.4932	872.11
323.15 K, x1 = 0.5641	866.62
323.15 K, x1 = 0.6247	862.17
323.15 K, x1 = 0.6951	857.22
323.15 K, x1 = 0.7554	853.17
323.15 K, x1 = 0.8251	848.68
323.15 K, x1 = 0.8812	845.18
323.15 K, x1 = 0.9572	840.6
333.15 K, x1 = 0.0547	904.33
333.15 K, x1 = 0.1122	897.9
333.15 K, x1 = 0.1815	890.59
333.15 K, x1 = 0.2551	883.29
333.15 K, x1 = 0.3151	877.68
333.15 K, x1 = 0.3821	871.76
333.15 K, x1 = 0.4554	865.64
333.15 K, x1 = 0.5054	861.68
333.15 K, x1 = 0.5625	857.35
333.15 K, x1 = 0.6262	852.72
333.15 K, x1 = 0.6785	849.09
333.15 K, x1 = 0.7412	844.91
333.15 K, x1 = 0.8054	840.8
333.15 K, x1 = 0.8714	836.74
333.15 K, x1 = 0.9548	831.81
343.15 K, x1 = 0.0625	893.44
343.15 K, x1 = 0.1214	886.95
343.15 K, x1 = 0.1851	880.31
343.15 K, x1 = 0.2451	874.4
343.15 K, x1 = 0.3121	868.17
343.15 K, x1 = 0.3852	861.78
343.15 K, x1 = 0.4451	856.83
343.15 K, x1 = 0.5054	852.1
343.15 K, x1 = 0.5641	847.72
343.15 K, x1 = 0.6214	843.62
343.15 K, x1 = 0.6885	839.06
343.15 K, x1 = 0.7451	835.37
343.15 K, x1 = 0.8125	831.16
343.15 K, x1 = 0.8821	827
343.15 K, x1 = 0.9525	822.95
353.15 K, x1 = 0.0521	884.42
353.15 K, x1 = 0.112	877.82
353.15 K, x1 = 0.1785	870.9
353.15 K, x1 = 0.2352	865.33
353.15 K, x1 = 0.2958	859.69
353.15 K, x1 = 0.3562	854.38
353.15 K, x1 = 0.4215	848.95
353.15 K, x1 = 0.4854	843.93
353.15 K, x1 = 0.5412	839.75
353.15 K, x1 = 0.6121	834.72
353.15 K, x1 = 0.6858	829.79
353.15 K, x1 = 0.7551	825.38
353.15 K, x1 = 0.8254	821.12
353.15 K, x1 = 0.8851	817.65
353.15 K, x1 = 0.9512	813.95

Cc1ccccc1C [1,2-dimethylbenzene] + CN(C)C=O
Details	mass density [kg/m3]
293.15 K, x1 = 0.0555	943.56
293.15 K, x1 = 0.1111	938.71
293.15 K, x1 = 0.1754	933.3
293.15 K, x1 = 0.2352	928.47
293.15 K, x1 = 0.2952	923.8
293.15 K, x1 = 0.3562	919.23
293.15 K, x1 = 0.4251	914.29
293.15 K, x1 = 0.4865	910.06
293.15 K, x1 = 0.5484	905.95
293.15 K, x1 = 0.612	901.89
293.15 K, x1 = 0.6785	897.8
293.15 K, x1 = 0.7325	894.58
293.15 K, x1 = 0.7954	890.96
293.15 K, x1 = 0.8654	887.04
293.15 K, x1 = 0.9325	883.4
303.15 K, x1 = 0.0652	933.58
303.15 K, x1 = 0.1251	928.39
303.15 K, x1 = 0.1854	923.37
303.15 K, x1 = 0.2462	918.5
303.15 K, x1 = 0.3125	913.42
303.15 K, x1 = 0.3785	908.59
303.15 K, x1 = 0.4358	904.56
303.15 K, x1 = 0.4962	900.47
303.15 K, x1 = 0.5521	896.83
303.15 K, x1 = 0.6125	893.04
303.15 K, x1 = 0.6784	889.05
303.15 K, x1 = 0.7451	885.17
303.15 K, x1 = 0.8012	882.01
303.15 K, x1 = 0.8658	878.48
303.15 K, x1 = 0.9485	874.12
313.15 K, x1 = 0.0441	926.11
313.15 K, x1 = 0.1025	920.99
313.15 K, x1 = 0.1762	914.82
313.15 K, x1 = 0.2341	910.18
313.15 K, x1 = 0.2951	905.51
313.15 K, x1 = 0.3756	899.63
313.15 K, x1 = 0.4415	895.06
313.15 K, x1 = 0.5012	891.08
313.15 K, x1 = 0.5685	886.8
313.15 K, x1 = 0.6215	883.55
313.15 K, x1 = 0.6865	879.72
313.15 K, x1 = 0.7451	876.39
313.15 K, x1 = 0.8021	873.25
313.15 K, x1 = 0.8654	869.88
313.15 K, x1 = 0.9448	865.79
323.15 K, x1 = 0.0485	916.16
323.15 K, x1 = 0.1124	910.62
323.15 K, x1 = 0.1852	904.61
323.15 K, x1 = 0.2521	899.35
323.15 K, x1 = 0.3251	893.91
323.15 K, x1 = 0.3952	888.96
323.15 K, x1 = 0.4658	884.2
323.15 K, x1 = 0.5315	879.99
323.15 K, x1 = 0.5952	876.08
323.15 K, x1 = 0.6584	872.37
323.15 K, x1 = 0.7251	868.61
323.15 K, x1 = 0.7952	864.81
323.15 K, x1 = 0.8456	862.18
323.15 K, x1 = 0.9012	859.35
323.15 K, x1 = 0.9599	856.45
333.15 K, x1 = 0.0521	906.08
333.15 K, x1 = 0.1245	899.89
333.15 K, x1 = 0.1895	894.6
333.15 K, x1 = 0.2451	890.29
333.15 K, x1 = 0.3021	886.06
333.15 K, x1 = 0.3685	881.35
333.15 K, x1 = 0.4214	877.76
333.15 K, x1 = 0.4912	873.24
333.15 K, x1 = 0.5584	869.09
333.15 K, x1 = 0.6121	865.92
333.15 K, x1 = 0.6725	862.48
333.15 K, x1 = 0.7315	859.26
333.15 K, x1 = 0.7943	855.95
333.15 K, x1 = 0.8651	852.38
333.15 K, x1 = 0.9432	848.58
343.15 K, x1 = 0.0625	895.2
343.15 K, x1 = 0.1325	889.33
343.15 K, x1 = 0.1952	884.33
343.15 K, x1 = 0.2658	878.99
343.15 K, x1 = 0.3321	874.24
343.15 K, x1 = 0.3965	869.86
343.15 K, x1 = 0.4652	865.41
343.15 K, x1 = 0.5325	861.27
343.15 K, x1 = 0.5912	857.83
343.15 K, x1 = 0.6524	854.4
343.15 K, x1 = 0.7125	851.16
343.15 K, x1 = 0.7895	847.19
343.15 K, x1 = 0.8462	844.4
343.15 K, x1 = 0.9012	841.76
343.15 K, x1 = 0.9577	839.14
353.15 K, x1 = 0.0715	884.27
353.15 K, x1 = 0.1252	879.83
353.15 K, x1 = 0.1858	875.05
353.15 K, x1 = 0.2521	870.08
353.15 K, x1 = 0.3215	865.16
353.15 K, x1 = 0.3865	860.79
353.15 K, x1 = 0.4251	858.31
353.15 K, x1 = 0.4851	854.59
353.15 K, x1 = 0.5584	850.27
353.15 K, x1 = 0.6221	846.71
353.15 K, x1 = 0.6825	843.48
353.15 K, x1 = 0.7551	839.78
353.15 K, x1 = 0.8154	836.84
353.15 K, x1 = 0.8851	833.58
353.15 K, x1 = 0.9411	831.05
